Legend:
[1] = biological target: T1, Solute carrier organic anion transporter family member 1A3 (Rattus norvegicus, UniProt P70502); experiment: TP_TRANSPORTER: inhibition of Taurocholate uptake (Taurocholate: 0.25 uM, OTA: 100 uM) in OAT-K1-expressing MDCK cells; assay type: functional, cell-based; details: dog
T1 sequence (P70502 whole entry): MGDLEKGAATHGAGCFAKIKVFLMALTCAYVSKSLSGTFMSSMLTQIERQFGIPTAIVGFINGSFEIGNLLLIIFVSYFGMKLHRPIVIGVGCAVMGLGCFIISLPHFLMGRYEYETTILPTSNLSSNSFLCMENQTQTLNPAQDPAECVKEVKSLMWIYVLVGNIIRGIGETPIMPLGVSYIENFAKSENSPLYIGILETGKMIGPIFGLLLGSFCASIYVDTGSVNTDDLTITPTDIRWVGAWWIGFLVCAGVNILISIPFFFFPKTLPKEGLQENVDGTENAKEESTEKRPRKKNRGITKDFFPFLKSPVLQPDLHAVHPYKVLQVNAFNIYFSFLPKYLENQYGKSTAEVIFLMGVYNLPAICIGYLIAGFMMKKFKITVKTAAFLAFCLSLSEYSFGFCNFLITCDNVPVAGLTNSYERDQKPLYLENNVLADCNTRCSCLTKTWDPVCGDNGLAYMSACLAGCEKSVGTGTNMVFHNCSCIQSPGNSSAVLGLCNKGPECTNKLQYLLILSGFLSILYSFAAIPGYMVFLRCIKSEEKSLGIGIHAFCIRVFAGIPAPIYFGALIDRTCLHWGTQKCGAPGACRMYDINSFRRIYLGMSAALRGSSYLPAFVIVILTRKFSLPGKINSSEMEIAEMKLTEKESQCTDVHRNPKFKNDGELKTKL

[2] = biological target: T2, OAT-K2 (Solute carrier organic anion transporter family member 1A3) (Rattus norvegicus, UniProt P70502); experiment: (§1) TP_TRANSPORTER: uptake in OAT-K2-expressing MDCK cells; assay type: functional, cell-based; details: dog
T2 sequence (P70502 whole entry): T1 sequence (P70502 whole entry)

[3] = biological target: T3, OAT-K1 (Solute carrier organic anion transporter family member 1A3) (Rattus norvegicus, UniProt P70502); experiment: (§2) TP_TRANSPORTER: uptake in OAT-K1-expressing MDCK cells; assay type: functional, cell-based; details: dog
T3 sequence (P70502 whole entry): T1 sequence (P70502 whole entry)

[4] = biological target: T1, Solute carrier organic anion transporter family member 1A3; experiment: TP_TRANSPORTER: inhibition of Taurocholate uptake (Taurocholate: 0.25 uM, DHEA-3-acetate: 100 uM) in OAT-K1-expressing MDCK cells; assay type: functional, cell-based; details: dog
[5] = biological target: T1, Solute carrier organic anion transporter family member 1A3; experiment: TP_TRANSPORTER: inhibition of MTX uptake (MTX: 0.1 uM, T4: 50 uM) in OAT-K2-expressing MDCK cells; assay type: functional, cell-based; details: dog
[6] = biological target: T1, Solute carrier organic anion transporter family member 1A3; experiment: TP_TRANSPORTER: inhibition of MTX uptake (MTX: 0.1 uM, T3: 50 uM) in OAT-K2-expressing MDCK cells; assay type: functional, cell-based; details: dog
[7] = biological target: T4, Solute carrier organic anion transporter family member 1A4 (Rattus norvegicus, UniProt O35913); experiment: TP_TRANSPORTER: inhibition of Digoxin uptake in Xenopus laevis oocytes
T4 sequence (O35913 whole entry): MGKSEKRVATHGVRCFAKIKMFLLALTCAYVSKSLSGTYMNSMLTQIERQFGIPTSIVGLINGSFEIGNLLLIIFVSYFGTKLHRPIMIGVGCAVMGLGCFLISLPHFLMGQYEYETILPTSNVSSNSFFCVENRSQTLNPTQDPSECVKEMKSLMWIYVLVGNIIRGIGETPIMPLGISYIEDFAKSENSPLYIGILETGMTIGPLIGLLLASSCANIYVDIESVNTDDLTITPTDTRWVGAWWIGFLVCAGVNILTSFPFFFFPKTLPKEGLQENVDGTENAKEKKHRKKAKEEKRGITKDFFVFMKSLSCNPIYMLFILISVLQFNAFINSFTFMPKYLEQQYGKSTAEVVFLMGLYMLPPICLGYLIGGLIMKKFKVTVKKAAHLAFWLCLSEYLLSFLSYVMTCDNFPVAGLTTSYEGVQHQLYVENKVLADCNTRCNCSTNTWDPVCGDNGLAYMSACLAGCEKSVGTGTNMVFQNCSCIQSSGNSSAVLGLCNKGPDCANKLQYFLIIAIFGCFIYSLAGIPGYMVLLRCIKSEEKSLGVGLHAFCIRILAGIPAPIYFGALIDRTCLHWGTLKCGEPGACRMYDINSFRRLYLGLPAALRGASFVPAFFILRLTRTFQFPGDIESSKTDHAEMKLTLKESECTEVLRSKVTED

[8] = biological target: T1, Solute carrier organic anion transporter family member 1A3; experiment: TP_TRANSPORTER: inhibition of T3 uptake (T3: 0.43nM, MTX: 2500 uM) in OAT-K2-expressing MDCK cells; assay type: functional, cell-based; details: dog
[9] = biological target: T1, Solute carrier organic anion transporter family member 1A3; experiment: TP_TRANSPORTER: inhibition of T3 uptake (T3: 0.43nM, MTX: 2500 uM) in OAT-K1-expressing MDCK cells; assay type: functional, cell-based; details: dog
[10] = biological target: T1, Solute carrier organic anion transporter family member 1A3; experiment: TP_TRANSPORTER: inhibition of Taurocholate uptake (Taurocholate: 0.25 uM, DHEAS: 100 uM) in OAT-K1-expressing MDCK cells; assay type: functional, cell-based; details: dog
[11] = biological target: T1, Solute carrier organic anion transporter family member 1A3; experiment: TP_TRANSPORTER: inhibition of Taurocholate uptake (Taurocholate: 0.25 uM, DHEA: 100 uM) in OAT-K1-expressing MDCK cells; assay type: functional, cell-based; details: dog
[12] = substrate: CN(Cc1cnc2nc(N)nc(N)c2n1)c1ccc(C(=O)N[C@@H](CCC(=O)O)C(=O)O)cc1; experiment: as §1; assay type: functional, cell-based
[13] = substrate: C[C@]12CC[C@@H]3c4ccc(O)cc4CC[C@H]3[C@@H]1CC[C@@H]2O[C@@H]1O[C@H](C(=O)O)[C@@H](O)[C@H](O)[C@H]1O; experiment: as §1; assay type: functional, cell-based
[14] = substrate: N[C@@H](Cc1cc(I)c(Oc2cc(I)c(O)c(I)c2)c(I)c1)C(=O)O; experiment: as §1; assay type: functional, cell-based
[15] = substrate: N[C@@H](Cc1cc(I)c(Oc2ccc(O)c(I)c2)c(I)c1)C(=O)O; experiment: as §1; assay type: functional, cell-based
[16] = substrate: [H][C@@]12CC=C3C[C@@H](OS(=O)(=O)O)CC[C@]3(C)[C@@]1([H])CC[C@]1(C)C(=O)CC[C@@]21[H]; experiment: as §1; assay type: functional, cell-based
[17] = substrate: C[C@]12CC[C@@H]3c4ccc(O)cc4CC[C@H]3[C@@H]1CC[C@@H]2O[C@@H]1O[C@H](C(=O)O)[C@@H](O)[C@H](O)[C@H]1O; experiment: as §2; assay type: functional, cell-based
[18] = substrate: N[C@@H](Cc1cc(I)c(Oc2cc(I)c(O)c(I)c2)c(I)c1)C(=O)O; experiment: as §2; assay type: functional, cell-based
[19] = substrate: N[C@@H](Cc1cc(I)c(Oc2ccc(O)c(I)c2)c(I)c1)C(=O)O; experiment: as §2; assay type: functional, cell-based
[20] = substrate: [H][C@@]12CC=C3C[C@@H](OS(=O)(=O)O)CC[C@]3(C)[C@@]1([H])CC[C@]1(C)C(=O)CC[C@@]21[H]; experiment: as §2; assay type: functional, cell-based

C[C@@H]1Cc2c(Cl)cc(C(=O)N[C@@H](Cc3ccccc3)C(=O)O)c(O)c2C(=O)O1 [3R14S-OCHRATOXIN A]
Activity [1]: inhibitor [(at a rough estimate) 55 % of control]
Km [2]: 16.6 µM
Km [3]: 5.6 µM

CC(=O)O[C@H]1CC[C@@]2(C)C(=CC[C@@H]3[C@@H]2CC[C@]2(C)C(=O)CC[C@@H]32)C1 [DEHYDROEPIANDROSTERONE ACETATE]
Activity [4]: inhibitor [(at a rough estimate) 30 % of control]

N[C@@H](Cc1cc(I)c(Oc2cc(I)c(O)c(I)c2)c(I)c1)C(=O)O [LEVOTHYROXINE]
Activity [5]: inhibitor [(at a rough estimate) 60 % of control]

N[C@@H](Cc1cc(I)c(Oc2ccc(O)c(I)c2)c(I)c1)C(=O)O [LIOTHYRONINE]
Activity [6]: inhibitor [(at a rough estimate) 60 % of control]
IC50 [7]: 50.4 µM

CN(Cc1cnc2nc(N)nc(N)c2n1)c1ccc(C(=O)N[C@@H](CCC(=O)O)C(=O)O)cc1 [METHOTREXATE]
Activity [8]: inhibitor [(at a rough estimate) 75 % of control]
Activity [9]: inhibitor [(at a rough estimate) 75 % of control]

C[C@]12CC[C@H](OS(=O)(=O)O)CC1=CC[C@@H]1[C@@H]2CC[C@]2(C)C(=O)CC[C@@H]12 [PRASTERONE SULFURIC ACID]
Activity [10]: inhibitor [(at a rough estimate) 30 % of control]

C[C@]12CC[C@H](O)CC1=CC[C@@H]1[C@@H]2CC[C@]2(C)C(=O)CC[C@@H]12 [PRASTERONE]
Activity [11]: inhibitor [(at a rough estimate) 30 % of control]

Cc1cn([C@H]2C[C@H](N=[N+]=[N-])[C@@H](CO)O2)c(=O)[nH]c1=O [ZIDOVUDINE]
Km [2]: 76.3 µM
Km [3]: 64.3 µM

B1: Solute carrier organic anion transporter family member 1A3 (Rattus norvegicus) (protein)
chain: T1 sequence (P70502 whole entry)
Km [12]: 1.8 µM
Km [13]: 44.9 µM
Km [14]: 12 µM
Km [15]: 24.8 µM
Km [16]: 7.6 µM
Km [17]: 35.3 µM
Km [18]: 20.2 µM
Km [19]: 43.8 µM
Km [20]: 8.5 µM
